{
  "source": "paper PMC4038355",
  "about": "(Molecular microbiology, 2014)",
  "molecular_target": "T1, TstT (LVIS_0852) (Levilactobacillus brevis, UniProt Q03S28)",
  "T1 sequence (Q03S28 1-120)": "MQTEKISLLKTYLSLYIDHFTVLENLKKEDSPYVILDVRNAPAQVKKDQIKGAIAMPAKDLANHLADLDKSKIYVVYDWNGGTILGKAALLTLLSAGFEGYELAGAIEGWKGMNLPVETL",
  "assay_type": "biochemical",
  "data": [
    {"compound": "O=S(O)O", "note": "[sulfite]", "values": [
      {"measurement": "% decrease at 100 μM", "value": 40, "unit": "%"}
    ]}
  ]
}
